The values that follow come from ChEMBL document CHEMBL1201862, “PubChem BioAssay data set” (2004).

Common to all, as to format: functional
In experiment [1] the target is Multidrug resistance protein CDR2 (Candida albicans (strain SC5314 / ATCC MYA-2876) (Yeast), UniProt P78595). In words: CaCDR2 efflux pump inhibitors in yeast, dose response, S. cerevisiae AD1-8u, singleplex, Cherry Pick1 hits (AID 588604).
Experiment [2] is described as follows: THP-1 cell cytotoxicity, cytotoxicity control, set 5 (AID 588443).
Experiment [3] addresses T1, Apoptotic protease-activating factor 1 (Homo sapiens, UniProt O14727).
T1 sequence (O14727 whole entry): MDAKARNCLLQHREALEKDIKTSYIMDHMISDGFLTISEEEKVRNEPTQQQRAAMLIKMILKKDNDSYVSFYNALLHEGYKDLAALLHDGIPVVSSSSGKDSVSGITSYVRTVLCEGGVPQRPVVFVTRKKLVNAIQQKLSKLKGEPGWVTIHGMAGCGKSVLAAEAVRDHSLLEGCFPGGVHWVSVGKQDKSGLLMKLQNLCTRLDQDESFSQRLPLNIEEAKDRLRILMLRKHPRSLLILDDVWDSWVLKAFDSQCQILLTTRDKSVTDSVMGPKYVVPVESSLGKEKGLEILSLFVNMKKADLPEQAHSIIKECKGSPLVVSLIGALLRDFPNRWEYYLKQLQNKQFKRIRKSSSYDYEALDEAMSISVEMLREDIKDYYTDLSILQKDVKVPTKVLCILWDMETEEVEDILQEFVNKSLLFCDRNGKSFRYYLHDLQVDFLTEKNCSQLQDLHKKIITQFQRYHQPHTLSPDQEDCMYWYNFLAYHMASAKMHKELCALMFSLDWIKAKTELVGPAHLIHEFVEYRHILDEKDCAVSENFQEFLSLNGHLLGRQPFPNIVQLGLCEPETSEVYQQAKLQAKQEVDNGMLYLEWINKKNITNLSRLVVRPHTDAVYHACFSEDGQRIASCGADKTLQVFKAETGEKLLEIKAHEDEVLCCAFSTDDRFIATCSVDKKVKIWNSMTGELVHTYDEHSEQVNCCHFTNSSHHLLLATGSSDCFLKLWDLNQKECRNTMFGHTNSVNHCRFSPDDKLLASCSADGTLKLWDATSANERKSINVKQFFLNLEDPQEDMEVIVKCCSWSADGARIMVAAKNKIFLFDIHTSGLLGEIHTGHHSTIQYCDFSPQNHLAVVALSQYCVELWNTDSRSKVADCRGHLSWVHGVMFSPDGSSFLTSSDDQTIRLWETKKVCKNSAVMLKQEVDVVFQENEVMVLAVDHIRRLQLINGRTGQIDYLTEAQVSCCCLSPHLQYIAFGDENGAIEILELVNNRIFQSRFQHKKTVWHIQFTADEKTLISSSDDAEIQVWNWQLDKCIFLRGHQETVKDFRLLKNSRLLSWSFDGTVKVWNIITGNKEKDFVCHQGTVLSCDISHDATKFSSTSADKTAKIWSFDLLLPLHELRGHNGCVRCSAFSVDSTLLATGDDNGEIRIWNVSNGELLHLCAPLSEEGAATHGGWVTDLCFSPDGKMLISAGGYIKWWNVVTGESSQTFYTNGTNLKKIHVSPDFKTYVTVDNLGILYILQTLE
In words: SAR analysis of small molecule inhibitors of Apaf-1 in a Fluorescent assay. The note with it: read-out: IC50_Mean.

Experiment [4] has as its target T2, High affinity choline transporter 1 (Homo sapiens, UniProt Q9GZV3).
T2 sequence (Q9GZV3 whole entry): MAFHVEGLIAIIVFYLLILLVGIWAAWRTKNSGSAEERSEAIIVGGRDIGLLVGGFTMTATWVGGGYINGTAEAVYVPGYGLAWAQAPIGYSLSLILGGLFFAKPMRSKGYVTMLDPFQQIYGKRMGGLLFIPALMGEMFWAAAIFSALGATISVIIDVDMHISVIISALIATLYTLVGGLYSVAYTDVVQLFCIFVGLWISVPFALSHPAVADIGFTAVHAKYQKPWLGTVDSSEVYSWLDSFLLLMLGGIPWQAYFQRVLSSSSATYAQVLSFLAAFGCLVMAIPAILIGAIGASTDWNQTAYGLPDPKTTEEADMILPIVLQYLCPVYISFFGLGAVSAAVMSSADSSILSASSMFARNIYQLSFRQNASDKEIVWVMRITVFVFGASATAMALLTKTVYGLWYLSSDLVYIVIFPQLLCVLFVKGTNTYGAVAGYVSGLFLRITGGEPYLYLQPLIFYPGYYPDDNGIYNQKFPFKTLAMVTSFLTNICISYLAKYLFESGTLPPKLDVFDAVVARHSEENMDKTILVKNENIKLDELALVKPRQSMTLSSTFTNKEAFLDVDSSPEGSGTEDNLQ
In words: CHT inhibitors, dose response, cell-based, 10-point CRC, membrane potential dye (AID 588401).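 Further: membrane potential dye fluorescence of choline-evoked depolarization via CHT.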

Experiment [5] has as its target T2, High affinity choline transporter 1. In words: CHT inhibitors, dose response, cell-based, 5-point CRC, membrane potential dye (AID 504840).
In experiment [6] the target is Sphingosine 1-phosphate receptor 5 (Homo sapiens, UniProt Q9H228). In words: S1P5 receptor agonists, human, late-stage follow-up, counter-screen for S1P4 agonist project, cell-based, fluorescence, set 2 (AID 504867).
Experiment [7] addresses Sphingosine 1-phosphate receptor 2 (Homo sapiens, UniProt O95136). In words: S1P2 receptor agonists, human, late-stage follow-up, counter-screen for S1P4 agonist project, cell-based, fluorescence, set 2 (AID 504873). (In general: The purpose of a counterscreen is to sort out artefacts and off-target activity.)
Experiment [8] concerns the target Sphingosine 1-phosphate receptor 1 (Homo sapiens, UniProt P21453). In words: Late-stage fluorescence-based dose-response cell-based counterscreen assay to identify agonists of the Sphingosine 1-Phosphate Receptor 4 (S1P4): Sphingosine 1-Phosphate Receptor 1 (S1P1) agonist assay Set 2.
Experiment [9] addresses Sphingosine 1-phosphate receptor 3 (Homo sapiens, UniProt Q99500). Briefly: Late-stage fluorescence-based dose-response cell-based counterscreen assay to identify agonists of the Sphingosine 1-Phosphate Receptor 4 (S1P4): Sphingosine 1-Phosphate Receptor 3 (S1P3) agonist assay Set 2.
In experiment [10] the target is T3, Neuropeptides B/W receptor type 1 (Homo sapiens, UniProt P48145).
T3 sequence (P48145 whole entry): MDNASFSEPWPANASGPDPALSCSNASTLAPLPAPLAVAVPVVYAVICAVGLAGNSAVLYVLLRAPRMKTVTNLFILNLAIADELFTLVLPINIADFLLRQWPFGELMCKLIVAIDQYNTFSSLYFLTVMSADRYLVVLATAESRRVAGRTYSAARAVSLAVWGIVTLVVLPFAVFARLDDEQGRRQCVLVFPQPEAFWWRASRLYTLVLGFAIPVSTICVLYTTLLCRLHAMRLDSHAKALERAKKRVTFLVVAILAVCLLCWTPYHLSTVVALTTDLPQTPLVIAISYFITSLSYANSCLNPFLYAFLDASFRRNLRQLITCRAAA
Briefly: GPR7 antagonist potency, late-stage follow-up, cell-based, fluorescence, dose response, set 6 (AID 588583).

Experiment [11] concerns the target Melanin-concentrating hormone receptor 1 (Homo sapiens, UniProt Q99705). Briefly: Late-stage fluorescence-based counterscreen for antagonists of the G-protein coupled receptor 7 (GPR7): cell-based dose response assay to identify antagonists of the melanin-concentrating hormone receptor 1 (MCHR1) Set 6.
Experiment [12] addresses T4, Protein disulfide-isomerase (Homo sapiens, UniProt P07237). In words: PDI inhibitors, insulin aggregation turbidity, dose response, biochemical, absorbance, cherry-picked samples (AID 602350).
Experiment [13] deals with T4, Protein disulfide-isomerase. Briefly: PDI inhibitors, insulin turbidity readout, dose response, biochemical, absorbance, cherry-picked samples, set 2 (AID 624274).

SMILES strings stand for the structures. Active and inactive are the calls of the source. Unless noted, the calls are words filed in the database; no cut-off is given here.

As usually defined, the EC50 is the concentration that produces a half-maximal response. As a reminder, the CC50 is the concentration giving 50% cytotoxicity. By AC50 is commonly meant the midpoint of the concentration-response curve, whichever way the signal moves.

T4 sequence (P07237 whole entry): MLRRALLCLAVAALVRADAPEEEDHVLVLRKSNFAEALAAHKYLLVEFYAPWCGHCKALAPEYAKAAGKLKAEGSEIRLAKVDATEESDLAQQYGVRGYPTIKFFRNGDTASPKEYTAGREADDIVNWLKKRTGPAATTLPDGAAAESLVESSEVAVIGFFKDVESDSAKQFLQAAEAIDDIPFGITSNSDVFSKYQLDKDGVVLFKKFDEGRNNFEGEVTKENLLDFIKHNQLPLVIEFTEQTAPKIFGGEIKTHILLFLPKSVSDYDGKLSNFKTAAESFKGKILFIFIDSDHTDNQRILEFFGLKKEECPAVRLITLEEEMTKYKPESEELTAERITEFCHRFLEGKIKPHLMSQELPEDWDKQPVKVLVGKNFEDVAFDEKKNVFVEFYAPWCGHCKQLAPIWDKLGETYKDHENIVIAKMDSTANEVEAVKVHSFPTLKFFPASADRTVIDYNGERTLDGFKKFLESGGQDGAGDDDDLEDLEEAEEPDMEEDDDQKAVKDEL
Chain of Sphingosine 1-phosphate receptor 1 (P21453 whole entry): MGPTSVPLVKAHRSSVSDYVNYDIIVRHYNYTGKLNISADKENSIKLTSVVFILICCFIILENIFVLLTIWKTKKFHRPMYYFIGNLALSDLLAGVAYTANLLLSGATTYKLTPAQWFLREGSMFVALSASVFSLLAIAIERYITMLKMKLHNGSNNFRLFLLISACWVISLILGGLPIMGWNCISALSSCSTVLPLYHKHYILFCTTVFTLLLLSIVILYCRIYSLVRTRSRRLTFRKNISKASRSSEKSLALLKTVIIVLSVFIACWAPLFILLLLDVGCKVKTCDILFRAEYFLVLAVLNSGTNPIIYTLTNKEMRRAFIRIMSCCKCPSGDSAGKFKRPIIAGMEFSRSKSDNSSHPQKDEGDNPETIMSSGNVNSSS
Chain of Sphingosine 1-phosphate receptor 2 (O95136 whole entry): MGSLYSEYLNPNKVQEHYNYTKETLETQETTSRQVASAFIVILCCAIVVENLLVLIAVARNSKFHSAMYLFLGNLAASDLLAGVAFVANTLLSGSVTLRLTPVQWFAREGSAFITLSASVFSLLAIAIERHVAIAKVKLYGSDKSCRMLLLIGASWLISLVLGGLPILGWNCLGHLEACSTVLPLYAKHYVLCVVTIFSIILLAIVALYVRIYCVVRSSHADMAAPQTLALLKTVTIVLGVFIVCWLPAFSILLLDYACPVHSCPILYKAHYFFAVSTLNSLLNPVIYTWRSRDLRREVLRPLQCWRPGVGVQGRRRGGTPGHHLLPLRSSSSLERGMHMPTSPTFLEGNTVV
Chain of Multidrug resistance protein CDR2 (P78595 whole entry): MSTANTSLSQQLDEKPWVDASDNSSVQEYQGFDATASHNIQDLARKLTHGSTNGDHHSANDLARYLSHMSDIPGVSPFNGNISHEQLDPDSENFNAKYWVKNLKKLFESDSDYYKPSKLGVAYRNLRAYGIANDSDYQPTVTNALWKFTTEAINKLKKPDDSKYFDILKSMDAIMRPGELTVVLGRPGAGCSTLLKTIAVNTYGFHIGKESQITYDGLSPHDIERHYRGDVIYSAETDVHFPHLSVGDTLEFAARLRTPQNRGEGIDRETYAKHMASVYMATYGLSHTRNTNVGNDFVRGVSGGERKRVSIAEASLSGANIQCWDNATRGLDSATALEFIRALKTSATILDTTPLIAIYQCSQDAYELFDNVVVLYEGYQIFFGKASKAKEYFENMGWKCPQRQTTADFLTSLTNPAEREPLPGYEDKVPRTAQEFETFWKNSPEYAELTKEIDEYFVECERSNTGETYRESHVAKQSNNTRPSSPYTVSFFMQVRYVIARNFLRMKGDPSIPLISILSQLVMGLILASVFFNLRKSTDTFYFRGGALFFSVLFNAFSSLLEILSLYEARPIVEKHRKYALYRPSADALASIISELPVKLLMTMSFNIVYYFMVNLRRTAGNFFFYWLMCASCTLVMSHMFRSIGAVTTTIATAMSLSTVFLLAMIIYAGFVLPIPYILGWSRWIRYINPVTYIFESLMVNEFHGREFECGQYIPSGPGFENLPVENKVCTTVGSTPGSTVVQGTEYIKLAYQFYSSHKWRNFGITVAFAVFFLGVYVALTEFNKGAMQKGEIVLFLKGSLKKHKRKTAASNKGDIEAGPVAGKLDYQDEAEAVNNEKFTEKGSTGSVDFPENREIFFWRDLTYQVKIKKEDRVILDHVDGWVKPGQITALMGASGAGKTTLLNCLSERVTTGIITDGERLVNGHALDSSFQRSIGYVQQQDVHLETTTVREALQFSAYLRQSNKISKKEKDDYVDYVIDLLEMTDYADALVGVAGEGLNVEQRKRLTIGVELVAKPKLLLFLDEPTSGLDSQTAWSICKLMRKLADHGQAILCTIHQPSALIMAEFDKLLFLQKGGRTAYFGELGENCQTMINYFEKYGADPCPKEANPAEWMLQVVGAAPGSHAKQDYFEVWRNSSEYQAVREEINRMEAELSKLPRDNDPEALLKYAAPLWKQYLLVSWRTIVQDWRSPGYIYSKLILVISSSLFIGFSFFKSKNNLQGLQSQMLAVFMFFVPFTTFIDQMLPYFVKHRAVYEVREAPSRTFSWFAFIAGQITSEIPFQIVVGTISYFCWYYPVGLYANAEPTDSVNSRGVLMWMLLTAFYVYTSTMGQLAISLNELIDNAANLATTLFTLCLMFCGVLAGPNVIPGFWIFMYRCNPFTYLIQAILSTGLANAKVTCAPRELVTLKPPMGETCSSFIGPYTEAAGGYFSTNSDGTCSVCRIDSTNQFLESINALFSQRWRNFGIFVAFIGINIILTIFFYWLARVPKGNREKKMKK
Chain of Sphingosine 1-phosphate receptor 5 (Q9H228 whole entry): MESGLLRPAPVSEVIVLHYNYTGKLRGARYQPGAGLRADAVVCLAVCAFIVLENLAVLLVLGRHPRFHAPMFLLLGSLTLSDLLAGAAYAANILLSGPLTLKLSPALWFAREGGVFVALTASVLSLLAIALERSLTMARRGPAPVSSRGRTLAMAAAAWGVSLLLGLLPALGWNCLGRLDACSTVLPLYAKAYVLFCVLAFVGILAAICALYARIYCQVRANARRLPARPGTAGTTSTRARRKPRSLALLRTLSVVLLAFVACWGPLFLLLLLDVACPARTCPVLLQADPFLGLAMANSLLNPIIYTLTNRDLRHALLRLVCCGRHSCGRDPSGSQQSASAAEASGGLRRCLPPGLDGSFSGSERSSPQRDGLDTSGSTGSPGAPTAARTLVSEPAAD
Chain of Sphingosine 1-phosphate receptor 3 (Q99500 whole entry): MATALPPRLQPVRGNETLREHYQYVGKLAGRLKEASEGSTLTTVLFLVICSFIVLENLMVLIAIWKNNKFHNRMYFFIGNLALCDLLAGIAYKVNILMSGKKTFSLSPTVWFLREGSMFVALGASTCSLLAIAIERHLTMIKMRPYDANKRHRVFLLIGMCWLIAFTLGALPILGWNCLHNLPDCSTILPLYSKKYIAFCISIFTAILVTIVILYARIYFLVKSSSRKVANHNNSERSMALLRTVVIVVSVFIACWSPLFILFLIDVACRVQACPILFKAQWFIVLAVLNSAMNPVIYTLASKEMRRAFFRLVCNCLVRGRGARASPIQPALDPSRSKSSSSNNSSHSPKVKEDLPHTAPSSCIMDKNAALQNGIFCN
Chain of Melanin-concentrating hormone receptor 1 (Q99705 whole entry): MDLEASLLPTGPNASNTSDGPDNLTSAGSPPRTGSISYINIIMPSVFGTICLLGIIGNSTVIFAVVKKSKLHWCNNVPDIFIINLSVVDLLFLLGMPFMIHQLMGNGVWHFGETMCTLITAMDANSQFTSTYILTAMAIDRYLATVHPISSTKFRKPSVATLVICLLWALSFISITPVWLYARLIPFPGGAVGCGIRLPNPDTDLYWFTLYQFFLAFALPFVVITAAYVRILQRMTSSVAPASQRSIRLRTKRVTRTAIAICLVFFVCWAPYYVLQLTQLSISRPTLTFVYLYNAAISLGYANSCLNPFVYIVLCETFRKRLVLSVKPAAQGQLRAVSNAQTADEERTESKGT

Consider `COc1cccc(-c2sc3ccc(OC)cc3c2-c2ccc(OCCN3CCCC3)cc2)c1`, for which the EC50 in [1] is 10.2 µM (active).

Take `CC(C)OC(=O)CSc1ncnc2c1cnn2-c1ccccc1`: the CC50 in experiment [2] was > 100 µM (active).

For `O=C(Nc1ccc2c(c1)C(=O)NC2=O)c1nc2ccccc2s1`, the IC50 in experiment [3] is > 100 µM (inactive).

In the case of `CC(C)CC(=O)N=c1nc(S)ss1`, the IC50 in experiment [4] is 3.98 µM (active); in experiment [5], 3.02 µM (active).

For the compound `CC/N=C1/S/C(=C/c2cc(C)n(-c3ccc(F)cc3F)c2C)C(=O)N1CC`, the EC50 is 6.18 µM (active) in [6], > 25 µM (inactive) in experiment [7], 0.816 µM (active) in experiment [8] and > 25 µM (inactive) in [9].

Regarding `N#CC(c1ccc(F)cc1)c1c(Cl)cnn(Cc2cccc3ccccc23)c1=O` (stereo not drawn), the IC50 in [10] and in experiment [11] was 0.154 µM (active) each time.

In the case of `CN(C)C1(c2nnnn2CCOC(=O)Nc2ccc(Cl)cc2)CCCCC1`, the figures for the AC50 in [12] and in experiment [13] were < 0.009 µM (active) and 0.009 µM (active), respectively.
